In patent US20060276464A1, “Diarylsulfone sulfonamides and use thereof” (Wyeth, priority 2005, published 2006):
Read-outs that look alike come from different tables or passages of the source. Values belong to the molecule of their own block, whether it stands above or below them.

Target: T1, SFRP-1 (Homo sapiens, UniProt Q8N474)
T1 sequence (Q8N474 32-314): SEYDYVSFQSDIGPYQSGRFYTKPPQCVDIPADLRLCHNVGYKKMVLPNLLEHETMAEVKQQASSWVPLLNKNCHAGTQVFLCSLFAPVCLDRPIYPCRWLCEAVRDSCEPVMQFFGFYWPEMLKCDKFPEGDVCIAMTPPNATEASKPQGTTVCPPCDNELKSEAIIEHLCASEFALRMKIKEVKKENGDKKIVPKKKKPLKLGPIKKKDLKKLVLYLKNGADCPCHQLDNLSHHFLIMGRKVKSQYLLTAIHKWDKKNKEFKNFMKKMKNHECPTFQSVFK
Experiment: Cell-based assay for in vitro measurement of SFRP-1/SARP2 antagonist activity (U2OS cells co-transfected with 16x TCF-tk-Luciferase reporter, Wnt and hSFRP-1);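 note: U2OS cells co-transfected with a TCF-tk luciferase reporter, a Wnt vector, hSFRP-1 or empty vector and CMV-βgal, luciferase luminescence read in cell lysates alongside βgal activity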
Settings: for fold induction at 15 µM / fold induction at 30 µM / fold induction at 20 µM: U2OS

[1] = read-out: Fold Induction with SFRP-1, Conc 15 μM, with SFRP-1, fold induction over SFRP-1 control, single dose
[2] = read-out: Fold Induction without SFRP-1, Conc 15 μM, without SFRP-1, single dose
[3] = read-out: Fold Induction with SFRP-1, Conc 30 μM, with SFRP-1, fold induction over SFRP-1 control, single dose
[4] = read-out: Fold Induction without SFRP-1, Conc 30 μM, without SFRP-1, single dose
[5] = read-out: Fold Induction with SFRP-1, Conc 15 μM, single dose, luciferase reporter, fold induction over SFRP-1 control, cells with SFRP-1
[6] = read-out: Fold Induction without SFRP-1, Conc 15 μM, single dose, luciferase reporter, cells without SFRP-1 (specificity control)
[7] = read-out: Fold Induction with SFRP-1, Conc 20 μM, with SFRP-1, fold induction over SFRP-1 control, single dose
[8] = read-out: Fold Induction without SFRP-1, Conc 20 μM, without SFRP-1, single dose

Compound: CCOc1ccc(CCNS(=O)(=O)c2cccc(S(=O)(=O)c3ccccc3)c2)cc1 [Example 80, N-[2-(4-ethoxyphenyl)ethyl]-3-(phenylsulfonyl)benzenesulfonamide]
- fold induction at 15 µM [1]: 1
- fold induction at 15 µM [2]: 0.7

Compound: O=C1CCCN1CCCNS(=O)(=O)c1cccc(S(=O)(=O)c2ccccc2)c1 [Example 192, N-[3-(2-oxopyrrolidin-1-yl)propyl]-3-(phenylsulfonyl)benzenesulfonamide]
- fold induction at 30 µM [3]: 1.1
- fold induction at 30 µM [4]: 1.1

Compound: C=CCN(CCc1ccccc1F)S(=O)(=O)c1cc(S(=O)(=O)c2ccc(C)cc2)ccc1C [Example 276, N-allyl-N-[2-(2-fluorophenyl)ethyl]-2-methyl-5-[(4-methylphenyl)sulfonyl]benzene sulfonamide]
- fold induction at 15 µM [1]: 0.8
- fold induction at 15 µM [2]: 1

Compound: CCN(CC)CCCNS(=O)(=O)c1cc(S(=O)(=O)c2ccc(F)cc2)ccc1C [Example 176, N-[3-(diethylamino)propyl]-5-[(4-fluorophenyl)sulfonyl]-2-methylbenzenesulfonamide]
- fold induction at 15 µM [1]: 2.6
- fold induction at 15 µM [2]: 1.3

Compound: Cc1ccc(S(=O)(=O)c2ccccc2)cc1S(=O)(=O)NCCCN1CCCC1=O [Example 212, 2-methyl-N-[3-(2-oxopyrrolidin-1-yl)propyl]-5-(phenylsulfonyl)benzenesulfonamide]
- fold induction at 15 µM [1]: 2
- fold induction at 15 µM [2]: 0.9

Compound: Cc1ccc(S(=O)(=O)c2ccc(F)cc2)cc1S(=O)(=O)NCCN1CCCCC1 [Example 166, 5-[(4-fluorophenyl)sulfonyl]-2-methyl-N-(2-piperidin-1-ylethyl)benzenesulfonamide]
- fold induction at 15 µM [1]: 2
- fold induction at 15 µM [2]: 1.1

Compound: COc1ccc(S(=O)(=O)c2ccccc2)cc1S(=O)(=O)NCCc1c[nH]cn1 [Example 236, N-[2-(1H-imidazol-4-yl)ethyl]-2-methoxy-5-(phenylsulfonyl)benzenesulfonamide]
- fold induction at 15 µM [1]: 1.2
- fold induction at 15 µM [2]: 1

Compound: Cc1ccc(S(=O)(=O)c2ccc(C)c(S(=O)(=O)N[C@H]3C[C@@H]3c3ccccc3)c2)cc1 [Example 253, 2-methyl-5-[(4-methylphenyl)sulfonyl]-N-[(1S,2R)-2-phenylcyclopropyl]benzenesulfonamide]
- fold induction at 20 µM [7]: 1.4
- fold induction at 20 µM [8]: 0.9

Compound: COc1ccc(Br)cc1CCNS(=O)(=O)c1cc(S(=O)(=O)c2ccc(F)cc2)ccc1C [Example 30, N-[2-(5-bromo-2-methoxyphenyl)ethyl]-5-[(4-fluorophenyl)sulfonyl]-2-methylbenzenesulfonamide]
- Fold Induction with SFRP-1 (Conc 30 μM, with SFRP-1, fold induction over SFRP-1 control, single dose): 1 fold
- fold induction at 15 µM [1]: 2.4
- fold induction at 30 µM [3]: 1.7
- fold induction at 15 µM [2]: 0.9

Compound: COCCNS(=O)(=O)c1cc(S(=O)(=O)c2ccccc2)ccc1C [Example 217, N-(2-methoxyethyl)-2-methyl-5-(phenylsulfonyl)benzenesulfonamide]
- fold induction at 15 µM [1]: 2.5
- fold induction at 15 µM [2]: 1

Compound: Cc1ccc(S(=O)(=O)c2ccc(F)cc2)cc1S(=O)(=O)NCCCN1CCOCC1 [Example 163, 5-[(4-fluorophenyl)sulfonyl]-2-methyl-N-(3-morpholin-4-ylpropyl)benzenesulfonamide]
- fold induction at 15 µM [1]: 2
- fold induction at 15 µM [2]: 0.9

Compound: C[C@H](CNS(=O)(=O)c1cccc(S(=O)(=O)c2ccccc2)c1)c1ccccc1 [Example 263, N-[(2S)-2-phenylpropyl]-3-(phenylsulfonyl)benzenesulfonamide]
- fold induction at 15 µM [1]: 0.8
- fold induction at 15 µM [2]: 1.1

Compound: COc1ccc(S(=O)(=O)c2ccccc2)cc1S(=O)(=O)NCCc1cccc(F)c1 [Example 155, N-[2-(3-fluorophenyl)ethyl]-2-methoxy-5-(phenylsulfonyl)benzenesulfonamide]
- fold induction at 15 µM [1]: 1.5
- fold induction at 15 µM [2]: 1.2

Compound: Cc1ccc(S(=O)(=O)c2ccccc2)cc1S(=O)(=O)NCCc1cccc(F)c1 [Example 52, N-[2-(3-fluorophenyl)ethyl]-2-methyl-5-(phenylsulfonyl)benzenesulfonamide]
- fold induction at 30 µM [3]: 1.4
- fold induction at 30 µM [4]: 0.7

Compound: Cc1ccc(S(=O)(=O)c2ccc(F)cc2)cc1S(=O)(=O)NCCc1ccccn1 [Example 162, 5-[(4-fluorophenyl)sulfonyl]-2-methyl-N-(2-pyridin-2-ylethyl)benzenesulfonamide]
- Fold Induction with SFRP-1 (Conc 15 μM, with SFRP-1, fold induction over SFRP-1 control, single dose): 2.5 fold
- Fold Induction without SFRP-1 (Conc 15 μM, without SFRP-1, single dose): 1 fold
- fold induction at 15 µM [1]: 2.7
- fold induction at 15 µM [2]: 0.8

Compound: Cc1ccc(S(=O)(=O)c2ccc(Cl)cc2)cc1S(=O)(=O)N[C@H]1C[C@@H]1c1ccccc1 [Example 256, 5-[(4-chlorophenyl)sulfonyl]-2-methyl-N-[(1S,2R)-2-phenylcyclopropyl]benzenesulfonamide]
- fold induction at 20 µM [7]: 1.2
- fold induction at 20 µM [8]: 1

Now from value to molecule:

- fold induction at 15 µM [1]: 1.6
- fold induction at 15 µM [2]: 1.1
Compound: Cc1ccc(S(=O)(=O)c2ccccc2)cc1S(=O)(=O)NC1CCN(C(=O)Cc2ccccc2)CC1 [Example 470, 2-methyl-N-[1-(phenylacetyl)piperidin-4-yl]-5-(phenylsulfonyl)benzenesulfonamide]

- fold induction at 15 µM [5]: 0.9
- fold induction at 15 µM [6]: 1
Compound: O=S(=O)(c1ccccc1)c1ccc(Cl)c(S(=O)(=O)N2CCN(Cc3ccc4c(c3)OCO4)CC2)c1 [Example 637, 1-(1,3-benzodioxol-5-ylmethyl)-4-{[2-chloro-5-(phenylsulfonyl)phenyl]sulfonyl}piperazine]

- fold induction at 15 µM [1]: 1.2
- fold induction at 15 µM [2]: 1
Compound: Cc1ccc(S(=O)(=O)c2ccc(C(C)C)cc2)cc1S(=O)(=O)NCCCn1ccnc1 [Example 338, N-[3-(1H-imidazol-1-yl)propyl]-5-[(4-isopropylphenyl)sulfonyl]-2-methylbenzenesulfonamide]

- fold induction at 15 µM [5]: 3
- fold induction at 15 µM [6]: 1.2
Compound: Cc1ccc(S(=O)(=O)c2ccc(F)cc2)cc1S(=O)(=O)NC1CCNCC1 [Example 576, 5-[(4-fluorophenyl)sulfonyl]-2-methyl-N-piperidin-4-ylbenzenesulfonamide]

- fold induction at 15 µM [1]: 2.8
- fold induction at 15 µM [2]: 1
Compound: O=S(=O)(NCCCn1ccnc1)c1cc(S(=O)(=O)c2ccccc2)ccc1Cl [Example 336, 2-chloro-N-[3-(1H-imidazol-1-yl)propyl]-5-(phenylsulfonyl)benzenesulfonamide]

- fold induction at 15 µM [1]: 1.9
- fold induction at 15 µM [2]: 1.1
Compound: Cc1ccc(S(=O)(=O)c2ccccc2Cl)cc1S(=O)(=O)NCCCn1ccnc1 [Example 377, 5-[(2-chlorophenyl)sulfonyl]-N-[3-(1H-imidazol-1-yl)propyl]-2-methylbenzenesulfonamide]

- fold induction at 15 µM [1]: 1.1
- fold induction at 15 µM [2]: 1.2
Compound: CCc1ccc(S(=O)(=O)c2ccccc2)cc1S(=O)(=O)N(C)CCc1ccccc1 [Example 284, 2-ethyl-N-methyl-N-(2-phenylethyl)-5-(phenylsulfonyl)benzenesulfonamide]

- fold induction at 15 µM [1]: 2.5
- fold induction at 15 µM [2]: 1.1
Compound: COc1ccccc1S(=O)(=O)c1ccc(C)c(S(=O)(=O)NCCCn2ccnc2)c1 [Example 316, N-[3-(1H-imidazol-1-yl)propyl]-5-[(2-methoxyphenyl)sulfonyl]-2-methylbenzenesulfonamide]

- fold induction at 15 µM [1]: 1.2
- fold induction at 15 µM [2]: 1.2
Compound: Cc1c(S(=O)(=O)NCCc2ccccc2)cccc1S(=O)(=O)c1ccccc1 [Example 302, 2-methyl-N-(2-phenylethyl)-3-(phenylsulfonyl)benzenesulfonamide]

- fold induction at 15 µM [1]: 2.5
- fold induction at 15 µM [2]: 1
Compound: Cc1ccc(S(=O)(=O)c2ccc(Cl)c(Cl)c2)cc1S(=O)(=O)NCCCn1ccnc1 [Example 340, 5-[(3,4-dichlorophenyl)sulfonyl]-N-[3-(1H-imidazol-1-yl)propyl]-2-methylbenzenesulfonamide]

- fold induction at 15 µM [1]: 2.8
- fold induction at 15 µM [2]: 1
Compound: Cc1cc(C)cc(S(=O)(=O)c2ccc(C)c(S(=O)(=O)NCCCn3ccnc3)c2)c1 [Example 343, 5-[(3,5-dimethylphenyl)sulfonyl]-N-[3-(1H-imidazol-1-yl)propyl]-2-methylbenzenesulfonamide]

- fold induction at 15 µM [1]: 1
- fold induction at 15 µM [2]: 0.9
Compound: Cc1ccc(S(=O)(=O)c2ccccc2)cc1S(=O)(=O)N(C)CCc1ccccc1 [Example 278, N,2-dimethyl-N-(2-phenylethyl)-5-(phenylsulfonyl)benzenesulfonamide]

- fold induction at 15 µM [1]: 2.1
- fold induction at 15 µM [2]: 1.1
Compound: Cc1ccc(S(=O)(=O)c2ccoc2C)cc1S(=O)(=O)NCCCn1ccnc1 [Example 363, N-[3-(1H-imidazol-1-yl)propyl]-2-methyl-5-[(2-methyl-3-furyl)sulfonyl]benzenesulfonamide]

- fold induction at 15 µM [1]: 0.9
- fold induction at 15 µM [2]: 0.9
Compound: Cc1ccc(S(=O)(=O)c2ccccc2)c(C)c1S(=O)(=O)NC1CCOCC1 [Example 473, 2,6-dimethyl-3-(phenylsulfonyl)-N-(tetrahydro-2H-pyran-4-yl)benzenesulfonamide]
